Assays:
[1] = system: MMP1 expression by synovial fibroblasts; assay: Inhibition of the response of SFs to supernatant of TNFα-triggered THP1 cells, MMP1 ELISA; type: cell-based, human; settings: dexamethasone 100 nM, SB203580 5 μM, added 1 h before trigger with 2-fold diluted SN of TNFα-activated THP1 cells, 72 h
Method: A 384-well format ELISA for measurement of MMP1 is developed. Various primary antibodies are tested, as well as various ELISA protocols. The following protocol is developed and validated to measure MMP1 levels in SF supernatant in 384 well plates: white Lumitrac 600 384 well plates (Greiner) are coated with 2 μg/ml anti-MMP1 antibody MAB1346 (Chemicon). The antibody is diluted in buffer 40 (1.21 g Tris base (Sigma), 0.58 g NaCl (Calbiochem) and 5 ml 10% NaN3 (Sigma) in 1 L milliQ water and adjusted to pH 8.5). After overnight incubation at 4° C., plates are washed with PBS (80 g NaCl, 2 g KCl (Sigma), 11.5 g Na2HPO4.7H2O and 2 g KH2PO4 in 10 L milliQ; pH 7.4) and blocked with 100 μl/well Casein buffer (2% Casein (VWR International) in PBS). Next day, casein buffer is removed from ELISA plates and replaced by 50 μl/well EC buffer (4 g casein, 2.13 g Na2HPO4 (Sigma), 2 g bovine albumin (Sigma), 0.69 g NaH2PO4.H2O (Sigma), 0.5 g CHAPS (Roche), 23.3 g NaCl, 4 ml 0,5 M EDTA pH 8 (Invitrogen), 5 ml 10% NaN3 in 1 L milliQ and adjusted to pH 7.0). 0.25 mM DTT (Sigma) is added to the thawed samples plates. After removal of the EC buffer, 20 μl of sample is transferred to the ELISA plates. […] Readout is performed on the Luminoscan Ascent Luminometer (Labsystems) with an integration time of 200 msec or with an Envision reader (Perkin Elmer). […]

[2] = system: MMP1 expression by synovial fibroblasts; assay: MMP1 ELISA on SFs triggered with cytokines or supernatant of cytokine-treated THP1 cells; type: cell-based, human; settings: each cytokine 25 ng/ml or THP1 supernatant 2-fold diluted, 72 h, 96 well plates
Method: A 384-well format ELISA for measurement of MMP1 is developed. Various primary antibodies are tested, as well as various ELISA protocols. The following protocol is developed and validated to measure MMP1 levels in SF supernatant in 384 well plates: white Lumitrac 600 384 well plates (Greiner) are coated with 2 μg/ml anti-MMP1 antibody MAB1346 (Chemicon). The antibody is diluted in buffer 40 (1.21 g Tris base (Sigma), 0.58 g NaCl (Calbiochem) and 5 ml 10% NaN3 (Sigma) in 1 L milliQ water and adjusted to pH 8.5). After overnight incubation at 4° C., plates are washed with PBS (80 g NaCl, 2 g KCl (Sigma), 11.5 g Na2HPO4.7H2O and 2 g KH2PO4 in 10 L milliQ; pH 7.4) and blocked with 100 μl/well Casein buffer (2% Casein (VWR International) in PBS). Next day, casein buffer is removed from ELISA plates and replaced by 50 μl/well EC buffer (4 g casein, 2.13 g Na2HPO4 (Sigma), 2 g bovine albumin (Sigma), 0.69 g NaH2PO4.H2O (Sigma), 0.5 g CHAPS (Roche), 23.3 g NaCl, 4 ml 0,5 M EDTA pH 8 (Invitrogen), 5 ml 10% NaN3 in 1 L milliQ and adjusted to pH 7.0). […] Readout is performed on the Luminoscan Ascent Luminometer (Labsystems) with an integration time of 200 msec or with an Envision reader (Perkin Elmer).
The increase of MMP1 expression by SFs upon treatment with cytokines relevant in the field of RA (TNFα, IL1β and OSM) or a combination thereof is monitored. […]

| Compound | MMP1 levels lower than control levels [1] | increase (induction) of MMP1 expression by SFs [2] |
| --- | --- | --- |
| C[S+]([O-])c1ccc(-c2nc(-c3ccncc3)c(-c3ccc(F)cc3)[nH]2)cc1 (stereo not drawn) [SB203580] | 3 fold |  |
| C[C@@H]1C[C@H]2[C@@H]3CCC4=CC(=O)C=C[C@]4(C)[C@@]3(F)[C@@H](O)C[C@]2(C)[C@@]1(O)C(=O)CO [dexamethasone] | 4 fold |  |
| TNFα |  | ~3 fold |
